Source: patent US5229364A, “Polypeptides derived from the human immunodeficiency virus endonuclease protein” (priority 1991, dated 1993)

Columns and labels:
[1] = tested on: HIV-1 antibody positive sera; assay: Peptide ELISA with HIV-1 antibody positive sera; type: binding, human; details: 33 HIV-1 antibody positive sera diluted 1/100; peptide 1 μg/well; absorbance 490 nm; positive = above mean of negative sera plus three S.D.
Method: FIG. 1 illustrates the reactivity of sera from HIV-1 infected and non-infected individuals to selected HIV-1 endonuclease peptides. Thirty-three HIV-1 antibody positive sera (filled symbols) and fourteen control sera (open symbols) were analyzed in ELISA with peptides representing the HIV-1 endonuclease protein (6). Amino acid sequences were derived from the HIV-1 consensus sequence and are shown at the bottom of the picture (abscissa). Uppercase letters indicate consensus amino acids, whereas less conserved amino acids are indicated with lowercase letters. Absorbance values at 490 nm are indicated in the ordinate. Three of the sera belonged to infected individuals classified as CDC 1 (7), thirteen to CDCII, seven to CDC III and ten to CDC IV. Becaused reactivity to other regions than the one represented by End 10 was very low, only results of a selected number of peptides is shown in the figure. FIG. 2 illustrates the reactivity of HIV-1 antobidy positive and control sera to an End 10 set of 18 glycine (G) substitution peptides. Filled symbols show mean optical density for 13 antibody positive sera. The corresponding values for four negative sera are shown by open symbols. Vertical bars represent standard deviation values. The mean reactivity to intact peptide End 10 was chosen to represent 100% of activity and reactivity to the substituted peptides is expressed in relation to this. […]

[2] = tested on: sera obtained from HIV-2 infected individuals; assay: Peptide ELISA with sera from HIV-2 infected individuals; type: binding, human; details: data not shown
Method: The peptide ELISA was performed as follows. Microtiter plate wells (Linbro, Flow, Scotland) were coated with peptide (1 μg/well) resuspended in 0.01 M carbonate buffer at room temperature overnight. Thereafter, the plates wells were blocked with 5% bovine serum albumin. 100 μl of reagents were used per well. Five washings (0.9% NaCl and 0.005% Tween 20 in distilled water) were performed between the different steps of the ELISA procedure. Positive sera and controls were diluted 1/100 and incubated in the plates for one hour at 37° C. Peroxidase conjugated immunoglobulins to human IgG y-chains (Dakopatts; Denmark) diluted 1/2000 were added (1 hour, 37° C.). 1,2 phenylene diaminedihydrochloride was used as substrate. The reaction was allowed to continue for ten minutes and then stopped with 3 M H2 SO4. […] The mean optic density plus three times S.D. for peptide End 10 was 0.8.
The corresponding region in the genome of HIV-2 (Table 1) and simian immunodeficiency virus (SIV) is also very conserved. […] Some amino-acid stretches are, however, completely conserved among the different serotypes. Because of this observation, the HIV-1 peptide End 10 was also tested with 30 sera obtained from HIV-2 infected individuals.

## ETGQETAYFLLKLAGRWPVK [End 10, 20-residue peptide of HIV-1 endonuclease, starting at position 655 of the pol consensus]
[1]
  reactivity in ELISA with HIV-1 antibody positive sera: reacted strongly
[2]; 30 HIV-2 sera
  intensity of the reactions with HIV-2 sera relative to HIV-1 sera: comparable
[2]; 30 sera from HIV-2 infected individuals
  reactivity in ELISA with HIV-2 sera: reacted strongly
